# Data as given in PubChem BioAssay AID2060500 (Molecular Pharmacology Branch, DTP, NCI, 2025).
# System: 596521-263-R-J1-PDC complex spheroids, viability % of control
# Test: Anticancer human tumor 596521-263-R-J1-PDC patient-derived soft tissue sarcoma cell line growth inhibition [GQUAD]
# Details: for IC50: curve of first compound; for viability, T/C: stronger effect = lower value
# Excerpt: DNA G-quadruplex Stabilizer Agents in Combinations in Complex Spheroids
# A high-throughput screen of multi-cell type tumor spheroids was designed to identify active combinations of DNA G-quadruplex stabilizer agents and targeted small molecules. Complex spheroids include a stromal component modeled by human endothelial cells (HUVEC) and fibroblasts modeled by human mesenchymal stem cells (MSCs). The concentration ranges selected for each drug and investigational agent were based upon clinically achievable concentrations if the clinical Cmax of the agent was known.
# Compounds. The drugs and investigational agents: pidnarulex (CX-5461; NSC782164), APTO-253 (NSC789042), BRACO-19 (NSC847499), peposertib (NSC802822), ceralasertib (NSC780249), elimusertib (NSC800525), camonsertib (NSC841442), AZD-1390 (NSC803789), olaparib (NSC753686), talazoparib (NSC767125), ART-558 (NSC835418), sotorasib (NSC818433), MRTX-1133 (NSC836407), SN-38 (NSC673596), topotecan (NSC609699), etoposide (NSC141540), doxorubicin (NSC123127), gemcitabine (NSC613327), 5-fluorouracil (NSC19893), paclitaxel (NSC125973), vemurafenib (NSC761431), panobinostat (NSC761190), R-306465 (JNJ-16241199; NSC773264), adavosertib (NSC754352), TP-3654 (NSC805149), carboplatin (NSC241240), KSQ-4279 (NSC840948), and staurosporine (NSC755774) were obtained from the National Cancer Institute (NCI) Developmental Therapeutics Program Chemical Repository (34). The FDA-approved anticancer drug set is available from the NCI Developmental Therapeutics Program. […] The stock solutions were prepared in dimethyl sulfoxide (DMSO, Sigma-Aldrich, St. Louis, MO, cat. D2650) at 800-fold the tested concentration and stored at -70 degrees C prior to their use. All drugs and investigational agents were tested over a range starting from a high concentration at or near the clinical Cmax and decreasing in half-log increments. If the clinical Cmax for an agent had not been determined, the highest concentration tested was 10 microM.
# 2.3 Cell Culture. All cells were maintained in an incubator at 37 degrees C and 5% CO2 with 95% humidity. The PDC lines were cultured according to standard operating procedures established by the NCI PDMR. All PDCs were thawed and cultured in Matrigel-coated flasks prepared with a working solution of 1X Ham's F-12 nutrient mix, without supplementation (Invitrogen, cat. 11765054), 100 U/mL penicillin-streptomycin (Invitrogen, cat. 15140122), and 2.5% Matrigel (Corning Inc., cat. 354248) for the first three passages. The 857933-349-R-J2-PDC line was cultured in 6C/Colon 1B media, which includes advanced DMEM/F-12 (Thermo Fisher Scientific, cat. 12634028), 10 mM HEPES (Thermo Fisher Scientific, cat. 15630080), 1X GlutaMAX supplement (Thermo Fisher Scientific, cat. 35050061), 0.1 mg/mL primocin (InvivoGen, cat. ant-pm-2), 10% defined fetal bovine serum, heat inactivated (HyClone Laboratories Inc., cat. SH30070.03HI), 50% L-WRN conditioned media (ATCC, cat. CRL-3276), 1.25 mM N-Acetyl-L-cysteine (Sigma-Aldrich, cat. A9165), 10 mM nicotinamide (Sigma-Aldrich, cat. N0636), 1X B-27 supplement (Thermo Fisher Scientific, cat. 17504044), 1X N-2 supplement (Thermo Fisher Scientific, cat. 17502048), 10 microM Y-27632 dihydrochloride (Tocris Bioscience, cat. 1254), and 50 ng/mL human EGF recombinant protein (Thermo Fisher Scientific, cat. PHG0311). The 485176-168-R4-J1-PDC line was cultured in Panc media, which includes all 6C/Colon 1B media components plus 100 ng/mL human FGF-10 (Thermo Fisher Scientific, cat. 100-26), 500 nM SB-431542 (Selleckchem, cat. S1067), and gastrin (Tocris, cat. 3006).
# […]
# 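Note: spheroids exposed to drugs for 7 days before viability reading.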
structure (smiles),measurement,setting,value
Cn1ncnc1[C@H]1c2n[nH]c(=O)c3cc(F)cc(c23)N[C@@H]1c1ccc(F)cc1 + CN(C)c1ccc(Nc2c3ccc(NC(=O)CCN4CCCC4)cc3nc3cc(NC(=O)CCN4CCCC4)ccc23)cc1,IC50,second compound 0.0316 µM,> 316 nM
same,IC50,second compound 0.1 µM,> 316 nM
same,IC50,second compound 0.316 µM,> 316 nM
same,IC50,second compound 1 µM,> 316 nM
same,IC50,second compound 3.16 µM,> 316 nM
same,IC50,second compound 10 µM,> 316 nM
same,"viability, T/C","second compound 0.0316 µM, first compound 0.000999 µM",106%
same,"viability, T/C","second compound 0.0316 µM, first compound 0.00316 µM",89.4%
same,"viability, T/C","second compound 0.0316 µM, first compound 0.00999 µM",90.6%
same,"viability, T/C","second compound 0.0316 µM, first compound 0.0316 µM",84.8%
same,"viability, T/C","second compound 0.0316 µM, first compound 0.0999 µM",99.6%
same,"viability, T/C","second compound 0.0316 µM, first compound 0.316 µM",80.5%
same,"viability, T/C","second compound 0.1 µM, first compound 0.000999 µM",98.4%
same,"viability, T/C","second compound 0.1 µM, first compound 0.00316 µM",92.1%
same,"viability, T/C","second compound 0.1 µM, first compound 0.00999 µM",96.6%
same,"viability, T/C","second compound 0.1 µM, first compound 0.0316 µM",94.7%
same,"viability, T/C","second compound 0.1 µM, first compound 0.0999 µM",86.6%
same,"viability, T/C","second compound 0.1 µM, first compound 0.316 µM",93.5%
same,"viability, T/C","second compound 0.316 µM, first compound 0.000999 µM",104%
same,"viability, T/C","second compound 0.316 µM, first compound 0.00316 µM",97.9%
same,"viability, T/C","second compound 0.316 µM, first compound 0.00999 µM",102%
same,"viability, T/C","second compound 0.316 µM, first compound 0.0316 µM",94.6%
same,"viability, T/C","second compound 0.316 µM, first compound 0.0999 µM",83.4%
same,"viability, T/C","second compound 0.316 µM, first compound 0.316 µM",80%
same,"viability, T/C","second compound 1 µM, first compound 0.000999 µM",92.4%
same,"viability, T/C","second compound 1 µM, first compound 0.00316 µM",89.5%
same,"viability, T/C","second compound 1 µM, first compound 0.00999 µM",99.8%
same,"viability, T/C","second compound 1 µM, first compound 0.0316 µM",85.1%
same,"viability, T/C","second compound 1 µM, first compound 0.0999 µM",95%
same,"viability, T/C","second compound 1 µM, first compound 0.316 µM",76.1%
same,"viability, T/C","second compound 3.16 µM, first compound 0.000999 µM",94%
same,"viability, T/C","second compound 3.16 µM, first compound 0.00316 µM",97%
same,"viability, T/C","second compound 3.16 µM, first compound 0.00999 µM",98.4%
same,"viability, T/C","second compound 3.16 µM, first compound 0.0316 µM",85.5%
same,"viability, T/C","second compound 3.16 µM, first compound 0.0999 µM",92.6%
same,"viability, T/C","second compound 3.16 µM, first compound 0.316 µM",80.8%
same,"viability, T/C","second compound 10 µM, first compound 0.000999 µM",70.1%
same,"viability, T/C","second compound 10 µM, first compound 0.00316 µM",58.9%
same,"viability, T/C","second compound 10 µM, first compound 0.00999 µM",67.3%
same,"viability, T/C","second compound 10 µM, first compound 0.0316 µM",64.9%
same,"viability, T/C","second compound 10 µM, first compound 0.0999 µM",61.5%
same,"viability, T/C","second compound 10 µM, first compound 0.316 µM",60.2%
